Measurements taken from US11820766B2, “Monoacylglycerol lipase modulators” (Janssen Pharmaceutica NV, priority 2018, dated 2023).

Molecular target: T1, human MGL from HeLa cells (Homo sapiens, UniProt Q99685)
T1 construct: combining endogenously expressed MGL from HeLa cells with test compounds; endogenous in cells; host or cells: HeLa cells / cell homogenates
T1 sequence (Q99685 1-303): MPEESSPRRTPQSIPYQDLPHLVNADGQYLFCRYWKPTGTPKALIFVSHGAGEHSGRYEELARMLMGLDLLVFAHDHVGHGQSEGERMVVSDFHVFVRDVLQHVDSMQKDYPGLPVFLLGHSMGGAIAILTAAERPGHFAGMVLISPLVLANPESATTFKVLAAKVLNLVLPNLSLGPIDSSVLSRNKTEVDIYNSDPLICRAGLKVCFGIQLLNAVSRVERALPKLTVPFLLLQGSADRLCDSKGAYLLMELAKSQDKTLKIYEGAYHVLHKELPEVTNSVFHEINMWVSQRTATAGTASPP
Test: In vitro MGL activity assay: [glycerol-1,3-3H]-oleyl glycerol cleavage by MGL from HeLa cells
Assay type: biochemical
Settings: 300 nM [Glycerol-1,3-3H]-oleyl glycerol, one hour
Description: MGL is the predominant hydrolase in HeLa cells/cell homogenates.

Compound | IC50 [nM]
C[C@H]1c2nn(C)c(-c3cc(F)c(F)c(F)c3)c2CCN1C(=O)c1cnn(C)c1C1CCC1 [Example 333, (5-Cyclobutyl-1-methyl-pyrazol-4-yl)-[(7S)-2,7-dimethyl-3-(3,4,5-trifluorophenyl)-5,7-dihydro-4H-pyrazolo[3,4-c]pyridin-6-yl]methanone] | 25.4
C[C@H]1c2nn(C)c(-c3cc(F)c(F)c(F)c3)c2CCN1C(=O)c1c(C(F)(F)F)cnc2[nH]ccc12 [Example 371, [(7S)-2,7-Dimethyl-3-(3,4,5-trifluorophenyl)-5,7-dihydro-4H-pyrazolo[3,4-c]pyridin-6-yl]-[5-(trifluoromethyl)-1H-pyrrolo[2,3-b]pyridin-4-yl] methanone] | 136
C[C@H]1c2nn(C)c(-c3ccc(Cl)c(Cl)c3)c2CCN1C(=O)c1ccc2ncccc2c1 [Example 507, [(7S)-3-(3,4-Dichlorophenyl)-2,7-dimethyl-5,7-dihydro-4H-pyrazolo[3,4-c]pyridin-6-yl]-(6-quinolyl)methanone] | 15.2
COc1cc(-c2c3c(nn2C)[C@H](C)N(C(=O)c2ccc4ncccc4c2)CC3)ccn1 [Example 526, [(7S)-3-(2-Methoxy-4-pyridyl)-2,7-dimethyl-5,7-dihydro-4H-pyrazolo[3,4-c]pyridin-6-yl]-(6-quinolyl)methanone] | 502
C[C@H]1c2nn(C)c(-c3cc(F)c(F)c(F)c3)c2CCN1C(=O)c1n[nH]c2ncccc12 [Example 426, [(7S)-2,7-Dimethyl-3-(3,4,5-trifluorophenyl)-5,7-dihydro-4H-pyrazolo[3,4-c]pyridin-6-yl]-(1H-pyrazolo[3,4-b]pyridin-3-yl)methanone] | 14.5
COc1ncc(-c2c3c(nn2C)[C@H](C)N(C(=O)c2ccc4ncccc4c2)CC3)cc1C [Example 529, [(7S)-3-(6-Methoxy-5-methyl-3-pyridyl)-2,7-dimethyl-5,7-dihydro-4H-pyrazolo[3,4-c]pyridin-6-yl]-(6-quinolyl)methanone] | 320

Next, values leading:

IC50 [nM] | Compound
45.5 | C[C@H]1c2nn(C)c(-c3cc(F)c(F)c(F)c3)c2CCN1C(=O)c1cccn2ncc(Br)c12 [Example 379, (3-Bromopyrazolo[1,5-a]pyridin-4-yl)-[(7S)-2,7-dimethyl-3-(3,4,5-trifluorophenyl)-5,7-dihydro-4H-pyrazolo[3,4-c]pyridin-6-yl]methanone]
22.7 | COc1nccc(C(=O)N2CCc3c(nn(C)c3-c3cc(F)cc(C(F)F)c3)[C@@H]2C)c1C [Example 609, [(7S)-3-[3-(Difluoromethyl)-5-fluoro-phenyl]-2,7-dimethyl-5,7-dihydro-4H-pyrazolo[3,4-c]pyridin-6-yl]-(2-methoxy-3-methyl-4-pyridyl)methanone]
274 | C[C@H]1c2nn(C)c(-c3cc(F)c(F)c(F)c3)c2CCN1C(=O)c1nccc2cn[nH]c12 [Example 432, [(7S)-2,7-Dimethyl-3-(3,4,5-trifluorophenyl)-5,7-dihydro-4H-pyrazolo[3,4-c]pyridin-6-yl]-(1H-pyrazolo[3,4-c]pyridin-7-yl)methanone]
18.9 | C[C@H]1c2nn(C)c(-c3cc(F)c(F)c(F)c3)c2CCN1C(=O)c1cccc2c1CCOC2 [Example 576, [(7S)-2,7-Dimethyl-3-(3,4,5-trifluorophenyl)-5,7-dihydro-4H-pyrazolo[3,4-c]pyridin-6-yl]-isochroman-5-yl-methanone]
36.4 | Cc1cc2c(C(=O)N3CCc4c(nn(C)c4-c4cc(F)c(F)c(F)c4)[C@@H]3C)ncnc2n1C [Example 469, (6,7-Dimethylpyrrolo[2,3-d]pyrimidin-4-yl)-[(7S)-2,7-dimethyl-3-(3,4,5-trifluorophenyl)-5,7-dihydro-4H-pyrazolo[3,4-c]pyridin-6-yl]methanone]
3350 | C[C@H]1c2nn(C)c(-c3cc(F)c(F)c(F)c3)c2CCN1C(=O)c1ncnc2nc[nH]c12 [Example 470, [(7S)-2,7-Dimethyl-3-(3,4,5-trifluorophenyl)-5,7-dihydro-4H-pyrazolo[3,4-c]pyridin-6-yl]-(7H-purin-6-yl)methanone]
8.07 | C[C@H]1c2nn(C)c(-c3cc(F)c(F)c(F)c3)c2CCN1C(=O)c1cnn(C)c1C1CC1(F)F (single isomer, unassigned) [Example 337, (5-((R*)-2,2-difluorocyclopropyl)-1-methyl-1H-pyrazol-4-yl)((S)-2,7-dimethyl-3-(3,4,5-trifluorophenyl)-2,4,5,7-tetrahydro-6H-pyrazolo[3,4-c]pyridin-6-yl)methanone]

Same assay, conditions: 300 nM [Glycerol-1,3-3H]-oleyl glycerol, one hour incubation

Compound | IC50 [nM]
Cn1nc2c(c1-c1ccccc1)CCN(C(=O)c1sc3ccccc3c1Cl)C2 [Example 41, (3-Chlorobenzo[b]thiophen-2-yl)(2-methyl-3-phenyl-2,4,5,7-tetrahydro-6H-pyrazolo[3,4-c]pyridin-6-yl)methanone] | 64.6
C[C@H]1c2nn(C)c(-c3cc(F)c(F)c(F)c3)c2CCN1C(=O)c1cc(-n2cnnc2)cc(C(F)(F)F)c1 [Example 296, [(7S)-2,7-Dimethyl-3-(3,4,5-trifluorophenyl)-5,7-dihydro-4H-pyrazolo[3,4-c]pyridin-6-yl]-[3-(1,2,4-triazol-4-yl)-5-(trifluoromethyl)phenyl]methanone] | 608
C[C@H]1c2nn(C)c(-c3cc(F)c(F)c(F)c3)c2CCN1C(=O)c1ccc(F)c(-n2cnnc2)c1 [Example 291, [(7S)-2,7-Dimethyl-3-(3,4,5-trifluorophenyl)-5,7-dihydro-4H-pyrazolo[3,4-c]pyridin-6-yl]-[4-fluoro-3-(1,2,4-triazol-4-yl)phenyl]methanone] | 1400
Cc1cc(C(=O)N2CCc3c(nn(C)c3-c3cc(F)c(F)c(F)c3)[C@@H]2C)cc(-n2cnnc2)c1 [Example 293, [(7S)-2,7-Dimethyl-3-(3,4,5-trifluorophenyl)-5,7-dihydro-4H-pyrazolo[3,4-c]pyridin-6-yl]-[3-methyl-5-(1,2,4-triazol-4-yl)phenyl]methanone] | 63
CCC1c2nn(C)c(-c3cccc(F)c3)c2CCN1C(=O)c1ccc2ncccc2c1 (stereo not drawn) [Example 136, (7-Ethyl-3-(3-fluorophenyl)-2-methyl-2,4,5,7-tetrahydro-6H-pyrazolo[3,4-c]pyridin-6-yl)(quinolin-6-yl)methanone] | 31.4
C[C@H]1c2nn(C)c(-c3cc(F)c(F)c(F)c3)c2CCN1C(=O)c1cc2cccnc2n1C [Example 222, (S)-(2,7-Dimethyl-3-(3,4,5-trifluorophenyl)-2,4,5,7-tetrahydro-6H-pyrazolo[3,4-c]pyridin-6-yl)(1-methyl-1H-pyrrolo[2,3-b]pyridin-2-yl)methanone] | 64.7
C[C@H]1c2nn(C)c(-c3ccccc3)c2CCN1C(=O)c1ccc2ncccc2c1 (single isomer, unassigned) [Example 112] | 6.96
COc1ccc(C(=O)N2CCc3c(nn(C)c3-c3cc(F)c(F)c(F)c3)[C@@H]2C)cc1-c1ccn(C)n1 [Example 271, [(7S)-2,7-Dimethyl-3-(3,4,5-trifluorophenyl)-5,7-dihydro-4H-pyrazolo[3,4-c]pyridin-6-yl]-[4-methoxy-3-(1-methylpyrazol-3-yl)phenyl]methanone] | 182

Continued, values first:

IC50 [nM] | Compound
> 10000 | C[C@@H]1c2nn(C)c(-c3cccc(Cl)c3)c2CCN1C(=O)c1ccc2nccnc2c1 (single isomer, unassigned) [Example 133]
578 | COCc1cncc(C(=O)N2CCc3c(nn(C)c3-c3cc(F)c(F)c(F)c3)[C@@H]2C)c1 [Example 304, [(7S)-2,7-Dimethyl-3-(3,4,5-trifluorophenyl)-5,7-dihydro-4H-pyrazolo[3,4-c]pyridin-6-yl]-[5-(methoxymethyl)-3-pyridyl]methanone]
68 | Cn1nc2c(c1-c1ccccc1)CCN(C(=O)c1cccc3sccc13)C2 [Example 38, Benzo[b]thiophen-4-yl(2-methyl-3-phenyl-2,4,5,7-tetrahydro-6H-pyrazolo[3,4-c]pyridin-6-yl)methanone]
4.71 | C[C@H]1c2nn(C)c(-c3cc(F)c(F)c(F)c3)c2CCN1C(=O)c1ccc2ncccc2c1 [Example 234, (S)-(2,7-Dimethyl-3-(3,4,5-trifluorophenyl)-2,4,5,7-tetrahydro-6H-pyrazolo[3,4-c]pyridin-6-yl)(quinolin-6-yl)methanone]
550 | Cn1nc2c(c1-c1ccccc1)CCN(C(=O)c1ccc3scnc3c1)C2 [Example 60, Benzo[d]thiazol-5-yl(2-methyl-3-phenyl-2,4,5,7-tetrahydro-6H-pyrazolo[3,4-c]pyridin-6-yl)methanone]
300 | Cn1nc2c(c1-c1ccccc1)CCN(C(=O)c1n[nH]c3ccccc13)C2 [Example 66, (1H-Indazol-3-yl)(2-methyl-3-phenyl-2,4,5,7-tetrahydro-6H-pyrazolo[3,4-c]pyridin-6-yl)methanone]
18.6 | C[C@H]1c2nn(C)c(-c3cc(F)c(F)c(F)c3)c2CCN1C(=O)c1cc(-n2nccn2)ccc1F [Example 285, [(7S)-2,7-Dimethyl-3-(3,4,5-trifluorophenyl)-5,7-dihydro-4H-pyrazolo[3,4-c]pyridin-6-yl]-[2-fluoro-5-(triazol-2-yl)phenyl]methanone]
38.4 | C[C@H]1c2nn(C)c(-c3cc(F)cc(F)c3)c2CCN1C(=O)c1cc(C(F)(F)F)c2ncccc2c1 [Example 164, (S)-(3-(3,5-Difluorophenyl)-2,7-dimethyl-2,4,5,7-tetrahydro-6H-pyrazolo[3,4-c]pyridin-6-yl)(8-(trifluoromethyl)quinolin-6-yl)methanone]
240 | C[C@H]1c2nn(C)c(-c3cc(F)cc(F)c3)c2CCN1C(=O)c1ccccc1OCCF [Example 137, [(7S)-3-(3,5-Difluorophenyl)-2,7-dimethyl-5,7-dihydro-4H-pyrazolo[3,4-c]pyridin-6-yl]-[2-(2-fluoroethoxy)phenyl]methanone]
